From patent US20140235840A1, “NEW SYNTHESIS OF FUCOSE” (GLYCOM A/S, priority 2011, published 2014)

How the values were obtained:
[1] = Partition studies between organic solvent and water; type: physicochemical; details: for Number of volumes of organic solvent: to reach at least 95% of recovery using one volume of organic solvent each time relative to one volume of aqueous solution; for solubility in organic solvents: as compared to aqueous solvents; for amount of compound from aqueous phase / amount of compound from organic phase: 197 mg (cyclohexylidene) or 150 mg (isopropylidene) partitioned
Experimental: 1,2-O-Cyclohexylidene-6-deoxy-β-L-talofuranose (197 mg) was partitioned between water (10 mL) and methylene chloride (10 mL), layers separated and the residual amount of solutions in the separatory funnel were partitioned with extra amount of water (5 mL) and methylene chloride (5 mL). The combined organic phases were evaporated and dried in vacuo (50° C., <1 mbar, 1 hour) to give 140 mg of the title compound. The aqueous solution gave 53 mg after lyophilisation and drying in vacuo (50° C., <1 mbar, 2 hrs). Using the same procedure, partition between ethyl acetate and water provided 127 mg of the title compound from ethyl acetate phase and 70 mg from the aqueous phase.
Analogously, 1,2-O-isopropylidene-6-deoxy-β-L-talofuranose (150 mg) was partitioned between methylene chloride (24 mg) and aqueous phase (126 mg). Partition between ethyl acetate and water furnished 7 mg and 143 mg of the title compound, respectively.

[2] = shake-flask partition; gravimetric recovery from each phase; details: not told
[3] = conclusion in words from partition results
[4] = solvent system ethyl acetate-water

Number of volumes of organic solvent ([1]; CH2Cl2-water)	solubility in organic solvents [1, 3]	amount of compound from aqueous phase ([1]; ethyl acetate-water) [mg]	amount of compound from organic phase ([1]; ethyl acetate-water) [mg]	Number of volumes of organic solvent ([1]; ethyl acetate-water)	amount of compound from aqueous phase ([1]; methylene chloride-water) [mg]	amount of compound from organic phase ([1]; methylene chloride-water) [mg]	Partition P (=[C]org/[C]aq) ([1]; solvent system CH2Cl2-water)	logP ([1]; solvent system CH2Cl2-water)	Partition P (=[C]org/[C]aq) [1, 4]	logP [1, 4]	log partition ethyl acetate / water [2]	log partition methylene chloride (CH2Cl2) / water [2]	solubility in aqueous solutions [1, 3]	SMILES	affinity to organic solvents versus aqueous media [1, 3]
3	much higher solubility	70	127	3	53	140	2.64	0.42	1.81	0.26				C[C@H](O)[C@H]1O[C@@H]2OC3(CCCCC3)O[C@@H]2[C@@H]1O [1,2-O-Cyclohexylidene-6-deoxy-β-L-talofuranose]	higher affinity to organic solvents as compared to aqueous media
18	almost insoluble	143	7	21	126	24	0.19		0.16		0.16 concentration ratio (mass-based)	0.19 concentration ratio (mass-based)	highly soluble	C[C@H](O)[C@H]1O[C@@H]2OC(C)(C)O[C@@H]2[C@@H]1O [1,2-O-isopropylidene-6-deoxy-β-L-talofuranose]	higher affinity to aqueous medium
